Source: patent US20210069108A1, “METHODS FOR PREVENTION AND TREATMENT OF PRESSURE ULCERS CAUSED BY ISCHEMIA USING CONTACT VASODILATORS” (priority 2018, published 2021)

System: pressure ulcer
Assay: topical composition applied to one pressure ulcer of a patient, another pressure ulcer left untreated
Assay type: in vivo
Conditions: patient diagnosed with pressure ulcers
Source text: A patient is diagnosed with pressure ulcers. A topical composition comprising the calcium channel blocker nifedipine is applied to one pressure ulcer while another pressure ulcer is left untreated. […] A patient is diagnosed with pressure ulcers. A topical composition comprising the ACE inhibitor enalapril is applied to one pressure ulcer while another pressure ulcer is left untreated. […] A patient is diagnosed with pressure ulcers. A topical composition comprising the angiotensin receptor blocker losartan is applied to one pressure ulcer while another pressure ulcer is left untreated.

CCOC(=O)[C@H](CCc1ccccc1)N[C@@H](C)C(=O)N1CCC[C@H]1C(=O)O [enalapril]
healing of the treated pressure ulcer compared with the untreated pressure ulcer: heal faster than the untreated pressure ulcer

CCCCc1nc(Cl)c(CO)n1Cc1ccc(-c2ccccc2-c2nn[nH]n2)cc1 [losartan]
healing of the treated pressure ulcer compared with the untreated pressure ulcer: heal faster than the untreated pressure ulcer
